# Experimental data reported in patent US11174268B2, “Benzenesulfonamide compouds and their use as therapeutic agents” (Xenon Pharmaceuticals Inc., priority 2016, dated 2021).
# Counter-ions that a name gives are not always drawn. Like-named read-outs stand apart in the source and are kept apart here.
# Experiments:
# [1] = biological target: NaV1.6 (Homo sapiens (Human), UniProt Q9UQD0); assay: Sodium Influx Assay (Flux), NaV1.6; type: cell-based; settings: Trex HEK293 cells, ANG2 dye, inactivated state;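 further: Tetracycline-induced cells, compounds applied for one hour at room temperature with modulators holding channels open, IC50 from percent inhibition of sodium influx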
# [2] = biological target: NaV1.1 (Homo sapiens (Human), UniProt P35498); assay: Sodium Influx Assay (Flux), NaV1.1; type: cell-based; settings: Trex HEK293 cells, ANG2 dye, inactivated state;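 further: channels co-expressed with human β1 subunit and held open by modulators, cells exposed to compounds for one hour at room temperature, IC50 from percent inhibition of influx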
# [3] = biological target: NaV1.5 (Homo sapiens (Human), UniProt Q14524); assay: Sodium Influx Assay (Flux), NaV1.5
# [4] = read-out: Flux NaV1.5 IC50, Trex HEK293 cells, ANG2 dye, inactivated state
# NaV1.5, sequence (Q14524 other isoform, or with tags, fused parts or gaps): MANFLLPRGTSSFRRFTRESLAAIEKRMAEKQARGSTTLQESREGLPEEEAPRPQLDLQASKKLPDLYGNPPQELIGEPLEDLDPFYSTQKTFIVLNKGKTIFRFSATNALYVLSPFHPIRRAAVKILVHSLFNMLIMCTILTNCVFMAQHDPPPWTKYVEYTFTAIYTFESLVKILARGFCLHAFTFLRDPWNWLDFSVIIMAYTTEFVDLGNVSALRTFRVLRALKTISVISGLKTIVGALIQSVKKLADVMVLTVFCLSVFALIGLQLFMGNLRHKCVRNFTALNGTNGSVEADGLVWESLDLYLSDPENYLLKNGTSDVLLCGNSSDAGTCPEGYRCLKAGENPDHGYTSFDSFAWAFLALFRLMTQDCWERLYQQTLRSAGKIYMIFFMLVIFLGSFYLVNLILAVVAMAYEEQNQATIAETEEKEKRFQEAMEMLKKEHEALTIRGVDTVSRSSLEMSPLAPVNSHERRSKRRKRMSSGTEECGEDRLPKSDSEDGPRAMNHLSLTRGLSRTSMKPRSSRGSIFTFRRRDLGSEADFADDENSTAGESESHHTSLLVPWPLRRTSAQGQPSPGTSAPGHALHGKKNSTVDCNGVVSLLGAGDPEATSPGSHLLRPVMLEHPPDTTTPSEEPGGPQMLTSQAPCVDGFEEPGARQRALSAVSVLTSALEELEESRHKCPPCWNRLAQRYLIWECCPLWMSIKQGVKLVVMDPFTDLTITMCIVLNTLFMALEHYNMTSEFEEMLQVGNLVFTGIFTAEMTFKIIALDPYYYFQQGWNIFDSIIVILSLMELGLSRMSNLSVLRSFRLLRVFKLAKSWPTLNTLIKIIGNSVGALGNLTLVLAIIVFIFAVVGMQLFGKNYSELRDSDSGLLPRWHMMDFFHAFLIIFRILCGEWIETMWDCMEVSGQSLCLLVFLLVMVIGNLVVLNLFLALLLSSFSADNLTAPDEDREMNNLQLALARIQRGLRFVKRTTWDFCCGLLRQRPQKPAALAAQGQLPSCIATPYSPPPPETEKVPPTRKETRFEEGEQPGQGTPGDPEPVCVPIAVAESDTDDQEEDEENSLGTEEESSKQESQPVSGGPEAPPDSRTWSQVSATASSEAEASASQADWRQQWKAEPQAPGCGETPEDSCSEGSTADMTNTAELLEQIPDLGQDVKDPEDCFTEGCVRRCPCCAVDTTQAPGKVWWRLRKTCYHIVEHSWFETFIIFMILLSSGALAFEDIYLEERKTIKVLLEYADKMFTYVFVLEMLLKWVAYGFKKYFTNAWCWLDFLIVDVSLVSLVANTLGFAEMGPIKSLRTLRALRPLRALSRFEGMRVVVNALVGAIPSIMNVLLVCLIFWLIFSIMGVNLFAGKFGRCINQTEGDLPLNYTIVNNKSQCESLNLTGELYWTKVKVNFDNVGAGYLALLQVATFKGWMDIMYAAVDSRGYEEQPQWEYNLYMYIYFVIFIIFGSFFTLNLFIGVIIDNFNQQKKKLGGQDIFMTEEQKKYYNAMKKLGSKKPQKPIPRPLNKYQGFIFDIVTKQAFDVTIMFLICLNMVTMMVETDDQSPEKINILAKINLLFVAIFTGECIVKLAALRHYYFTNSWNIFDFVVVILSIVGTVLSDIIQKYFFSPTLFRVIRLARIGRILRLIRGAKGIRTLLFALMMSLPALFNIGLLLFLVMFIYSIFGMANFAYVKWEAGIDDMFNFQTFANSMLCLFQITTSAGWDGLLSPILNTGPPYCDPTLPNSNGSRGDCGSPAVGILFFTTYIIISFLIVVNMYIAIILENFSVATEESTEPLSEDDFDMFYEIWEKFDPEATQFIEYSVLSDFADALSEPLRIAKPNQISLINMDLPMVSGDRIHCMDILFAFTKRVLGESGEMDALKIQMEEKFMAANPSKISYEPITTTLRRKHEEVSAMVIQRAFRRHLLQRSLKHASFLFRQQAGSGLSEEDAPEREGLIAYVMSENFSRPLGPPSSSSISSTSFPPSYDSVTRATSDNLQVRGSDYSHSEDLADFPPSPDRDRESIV
Compound,IC50 [1] [µM],IC50 [2] [µM],"IC50 [3, 4] [µM]",IC50 [3] [µM]
"O=S(=O)(Nc1cscn1)c1cc(Cl)c(NCc2ccc(F)cc2CN2CCC2)cc1F [Example 132, 4-((2-(azetidin-1-ylmethyl)-4-fluorobenzyl)amino)-5-chloro-2-fluoro-N-(thiazol-4-yl)benzenesulfonamide]",5.11,7.87,24.7,–
"O=S(=O)(Nc1ccncn1)c1cc(Cl)c(NC2(c3ccccc3F)CC2)cc1F [Example 242, 5-chloro-2-fluoro-4-((1-(2-fluorophenyl)cyclopropyl)amino)-N-(pyrimidin-4-yl)benzenesulfonamide]",1.95,30,30,–
"O=S(=O)(Nc1cscn1)c1cc(Cl)c(NCc2cc(F)c(F)cc2CN2CCC2)cc1F [Example 193, 4-((2-(azetidin-1-ylmethyl)-4,5-difluorobenzyl)amino)-5-chloro-2-fluoro-N-(thiazol-4-yl)benzenesulfonamide formate]",7.49,8.85,26.7,–
"CCC(Nc1cc(F)c(S(=O)(=O)Nc2nccs2)cc1Cl)c1ccc2c(c1)CCCC2 (stereo not drawn) [Example 55, 5-chloro-2-fluoro-4-((1-(5,6,7,8-tetrahydronaphthalen-2-yl)propyl)amino)-N-(thiazol-2-yl)benzenesulfonamide]",20.7,16.1,21.3,–
"2,6-difluoro-4-((2-fluoro-6-((3-hydroxy-3-methylazetidin-1-yl)methyl)benzyl)amino)-N-(thiazol-4-yl)benzenesulfonamide formate [Example 169]",0.011,6.38,29,–
"O=S(=O)(Nc1ccncn1)c1cc(Cl)c(NC2(c3cc(F)ccc3F)CC2)cc1F [Example 241, 5-chloro-4-((1-(2,5-difluorophenyl)cyclopropyl)amino)-2-fluoro-N-(pyrimidin-4-yl)benzenesulfonamide]",2.36,26.8,30,–
"O=S(=O)(Nc1cscn1)c1cc(Cl)c(NC2(c3ccc(F)cc3F)CC2)cc1F [Example 224, 5-chloro-4-((1-(2,4-difluorophenyl)cyclopropyl)amino)-2-fluoro-N-(thiazol-4-yl)benzenesulfonamide]",5.07,7.76,30,–
"O=S(=O)(Nc1nccs1)c1cc(Cl)c(N[C@@H]2CCCc3ccccc32)cc1F [Example 102, (R)-5-chloro-2-fluoro-4-((1,2,3,4-tetrahydronaphthalen-1-yl)amino)-N-(thiazol-2-yl)benzenesulfonamide]",1.67,0.941,5.97,–
"CN1CCN(Cc2cccc(F)c2CNc2cc(F)c(S(=O)(=O)Nc3cscn3)c(F)c2)CC1 [Example 151, 2,6-difluoro-4-((2-fluoro-6-((4-methylpiperazin-1-yl)methyl)-benzyl)amino)-N-(thiazol-4-yl)benzenesulfonamide formate]",2.1,20.5,30,–

# Continued by falling IC50 [1], values first:
IC50 [1] [µM],IC50 [2] [µM],Compound,"IC50 [3, 4] [µM]",IC50 [3] [µM]
1.39,8.73,"COCc1ccc(F)c([C@H](C)Nc2cc(F)c(S(=O)(=O)Nc3cscn3)cc2Cl)c1 [Example 280, (S)-5-chloro-2-fluoro-4-((1-(2-fluoro-5-(methoxymethyl)phenyl)ethyl)amino)-N-(thiazol-4-yl)benzenesulfonamide]",23.9,–
1.03,3.84,"CC(C)C[C@@H](Nc1cc(F)c(S(=O)(=O)Nc2nccs2)cc1Cl)c1ccccc1 [Example 110, (R)-5-chloro-2-fluoro-4-((3-methyl-1-phenylbutyl)amino)-N-(thiazol-2-yl)benzenesulfonamide]",3.15,–
0.761,8.11,"C[C@H](Oc1cc(F)c(S(=O)(=O)Nc2nccs2)cc1Cl)c1cc(Cl)ccc1F [Example 95, (S)-5-chloro-4-(1-(5-chloro-2-fluorophenyl)ethoxy)-2-fluoro-N-(thiazol-2-yl)benzenesulfonamide]",30,–
0.556,4.27,"O=S(=O)(Nc1cscn1)c1c(F)cc(N[C@@H]2C[C@H](N3CCC3)c3ccccc32)cc1F [Example 289, 4-(((1R,3S)-3-(azetidin-1-yl)-2,3-dihydro-1H-inden-1-yl)amino)-2,6-difluoro-N-(thiazol-4-yl)benzenesulfonamide]",30,–
0.493,30,"O=S(=O)(Nc1ccon1)c1cc(Cl)c(NCc2c(F)cccc2CN2CCC2)cc1F [Example 301, 4-((2-(azetidin-1-ylmethyl)-6-fluorobenzyl)amino)-5-chloro-2-fluoro-N-(isoxazol-3-yl)benzenesulfonamide formate]",30,–
0.467,30,"O=S(=O)(Nc1ncccn1)c1c(F)cc(NCc2c(F)cccc2CN2CCC2)cc1F [Example 145, 4-((2-(azetidin-1-ylmethyl)-6-fluorobenzyl)amino)-2,6-difluoro-N-(pyrimidin-2-yl)benzenesulfonamide 2,2,2-trifluoroacetate]",30,–
0.462,2.99,"O=S(=O)(Nc1ncns1)c1ccc(NCc2ccccc2)c(Cl)c1 [Example 33, 4-(Benzylamino)-3-chloro-N-(1,2,4-thiadiazol-5-yl)benzenesulfonamide]",25.8,–
0.275,0.831,"O=S(=O)(Nc1nccs1)c1cc(Cl)c(N[C@H](c2ccccc2F)C(F)(F)F)cc1F [Example 332, (R)-5-chloro-2-fluoro-N-(thiazol-2-yl)-4-((2,2,2-trifluoro-1-(2-fluorophenyl)ethyl)amino)benzenesulfonamide]",7.24,–
0.261,13.6,"O=S(=O)(Nc1nccs1)c1cc(Cl)c(N[C@H](CN2CCOCC2)c2ccccc2)cc1F [Example 75, (S)-5-chloro-2-fluoro-4-((2-morpholino-1-phenylethyl)amino)-N-(thiazol-2-yl)benzenesulfonamide 2,2,2-trifluoroacetate]",21.7,–
0.187,14.2,"C[C@@H](c1cccc(F)c1CNc1cc(F)c(S(=O)(=O)Nc2cscn2)c(F)c1)N1CCC1 [Example 278, (S)-4-((2-(1-(azetidin-1-yl)ethyl)-6-fluorobenzyl)amino)-2,6-difluoro-N-(thiazol-4-yl)benzenesulfonamide formate]",30,–
0.163,11.2,"C[C@H](c1cccc(F)c1CNc1cc(F)c(S(=O)(=O)Nc2cscn2)c(F)c1)N1CCC1 [Example 279, (R)-4-((2-(1-(azetidin-1-yl)ethyl)-6-fluorobenzyl)amino)-2,6-difluoro-N-(thiazol-4-yl)benzenesulfonamide formate]",30,–
0.114,0.147,"CC[C@H](Nc1cc(F)c(S(=O)(=O)Nc2nccs2)cc1C)c1ccccc1 [Example 126, (S)-2-fluoro-5-methyl-4-((1-phenylpropyl)amino)-N-(thiazol-2-yl)benzenesulfonamide]",–,11.4
0.08,4.6,"CN(Cc1cccc(F)c1CNc1cc(F)c(S(=O)(=O)Nc2cscn2)c(F)c1)C1CCC1 [Example 179, 4-((2-((cyclobutyl(methyl)amino)methyl)-6-fluorobenzyl)amino)-2,6-difluoro-N-(thiazol-4-yl)benzenesulfonamide formate]",6.42,–
